In PubChem BioAssay (NCI):
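Dose response: 5 concentrations. Exposure: 48 h. Format: 96-well plates. Endpoint: linear interpolation; highest concentration if not reached. Here, GI50 denotes the concentration required for 50% inhibition of growth. TGI: concentration producing complete growth inhibition.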

Columns and labels:
Assay in all cases: growth of human tumour cells (NCI), 48 h
IGROV1 ovarian = tested on: IGROV1 ovarian
SF-295 CNS = tested on: SF-295 CNS
K-562 leukemia = tested on: K-562 leukemia
T-47D breast = tested on: T-47D breast
UO-31 renal = tested on: UO-31 renal
MDA-MB-435 = tested on: MDA-MB-435
MCF7 breast = tested on: MCF7 breast
OVCAR-3 ovarian = tested on: OVCAR-3 ovarian
MOLT-4 leukemia = tested on: MOLT-4 leukemia
HCT-15 colon = tested on: HCT-15 colon
KM12 colon = tested on: KM12 colon
MDA-MB-231 breast = tested on: MDA-MB-231 breast
HCC-2998 colon = tested on: HCC-2998 colon
SNB-75 CNS = tested on: SNB-75 CNS
SK-OV-3 ovarian = tested on: SK-OV-3 ovarian
BT-549 breast = tested on: BT-549 breast
ACHN renal = tested on: ACHN renal
OVCAR-8 ovarian = tested on: OVCAR-8 ovarian
CCRF-CEM leukemia = tested on: CCRF-CEM leukemia
OVCAR-5 ovarian = tested on: OVCAR-5 ovarian
TK-10 renal = tested on: TK-10 renal
U251 CNS = tested on: U251 CNS
NCI-H460 lung = tested on: NCI-H460 lung
SR leukemia = tested on: SR leukemia
CAKI-1 renal = tested on: CAKI-1 renal
RPMI-8226 leukemia = tested on: RPMI-8226 leukemia
NCI/ADR-RES ovarian = tested on: NCI/ADR-RES ovarian

## C=C(CN1CCc2ccccc2C1)c1ccc(CCC(=O)Nc2ccccc2N)cc1
IGROV1 ovarian
  GI50: 16.3 µM
  TGI: 41.9 µM
SF-295 CNS
  GI50: 24.2 µM
  TGI: 86.7 µM
K-562 leukemia
  GI50: 23 µM
  TGI: 56.9 µM
T-47D breast
  GI50: 34.3 µM
  TGI: > 100 µM
UO-31 renal
  GI50: 12 µM
  TGI: 28.7 µM
MDA-MB-435
  GI50: 22.5 µM
  TGI: 49.9 µM
MCF7 breast
  GI50: 21.1 µM
  TGI: 54.7 µM
OVCAR-3 ovarian
  GI50: 19.3 µM
  TGI: 63.5 µM
MOLT-4 leukemia
  GI50: 4.65 µM
  TGI: 26 µM
HCT-15 colon
  GI50: 35.4 µM
  TGI: 97.9 µM
KM12 colon
  GI50: 21.9 µM
  TGI: 71.8 µM
MDA-MB-231 breast
  GI50: 18.6 µM
  TGI: 44.1 µM
HCC-2998 colon
  GI50: 17.1 µM
  TGI: 33.4 µM
SNB-75 CNS
  GI50: 25.3 µM
  TGI: 64.4 µM
SK-OV-3 ovarian
  GI50: 60.8 µM
  TGI: > 100 µM
BT-549 breast
  GI50: 16.4 µM
  TGI: 55.1 µM
ACHN renal
  GI50: 34.1 µM
  TGI: > 100 µM
OVCAR-8 ovarian
  GI50: 26.2 µM
  TGI: 59.5 µM
CCRF-CEM leukemia
  GI50: 4.66 µM
  TGI: > 100 µM
OVCAR-5 ovarian
  GI50: 54.1 µM
  TGI: > 100 µM
TK-10 renal
  GI50: 43.1 µM
  TGI: > 100 µM
U251 CNS
  GI50: 21.3 µM
  TGI: 50.3 µM
NCI-H460 lung
  GI50: 16.8 µM
  TGI: 38.6 µM
SR leukemia
  GI50: 18.7 µM
  TGI: 74.5 µM
CAKI-1 renal
  GI50: 20.9 µM
  TGI: 77.1 µM
RPMI-8226 leukemia
  GI50: 14.8 µM
  TGI: > 100 µM
NCI/ADR-RES ovarian
  GI50: 18.9 µM
  TGI: 83.3 µM
